From US9779901B2, “High temperature material compositions for high temperature thermal cutoff devices” (Therm-O-Disc, Incorporated, priority 2008, dated 2017)
Where a name gives a salt, the structure may show the parent alone.

conditions: not given

Row | Structure (SMILES) | Melting Point
1 | CN[C@H]1CC[C@@H](c2ccccc2)c2ccccc21 (as salt: hydrochloride) [Example 6] | 241 to 242 °C
2 | N#CC(CCN1CCC(C(=O)ON2C(=O)CCC2=O)(c2ccccc2)CC1)(c1ccccc1)c1ccccc1 (as salt: hydrochloride) [Example 17] | 242 to 244 °C
3 | CC1NCCc2c1[nH]c1cc(O)ccc21 (stereo not shown) (as salt: hydrochloride) [Example 100] | 254 to 255 °C
4 | CC(=O)Oc1c(C)c(C)c2c(c1C)CCC(C)(CCN(C)C)O2 (stereo not shown) (as salt: hydrochloride) [Example 172] | 263 to 270 °C
5 | C1=CCC2=C(C1)CC1=C(C2)CC2=C(CC=CC2)C1 [Example 4] | 241 to 242 °C
6 | CCOc1cccc(C#N)c1 [Example 5] | 241 to 244 °C
7 | O=C1NC(=O)C2(CCC(O)C2)c2ccncc21 (stereo not shown) [Example 8] | 240 to 243 °C
8 | c1cc2c3c(cccc3c1)-c1nc3ccccc3nc1-2 [Example 10] | 241 °C
9 | O=[N+]([O-])c1cccc2nc[nH]c12 [Example 12] | 242 °C
10 | NC(=O)CCCC[C@@H]1SC[C@@H]2NC(=O)N[C@@H]21 [Example 13] | 242 to 244 °C
11 | CC(C)C(=O)OC1C[C@H]2CC[C@@H](C1)N2C (stereo partly shown) [Example 14] | 242 °C
12 | c1cnc2c(ccc3nccnc32)n1 [Example 20] | 242 °C
13 | CC(C)(C)C1=CC(=C2C=C(C(C)(C)C)C(=O)C(C(C)(C)C)=C2)C=C(C(C)(C)C)C1=O [Example 22] | 243 to 245 °C
14 | Cc1nc2ccccc2c2ccc([N+](=O)[O-])cc12 [Example 23] | 243 to 245 °C
15 | Nc1ccc2ccccc2c1-c1c(N)ccc2ccccc12 [Example 25] | 242.5 to 243 °C
16 | CC1=C(/C=C/C(C)=C/C=C/C(C)=C/C=C/C=C(C)/C=C/C=C(C)/C=C/C2=C(C)C(=O)C(=O)C2(C)C)C(C)(C)C(=O)C1=O [Example 26] | 243 °C
17 | Cc1cc(C)c(C=O)cc1C [Example 28] | 243 °C
18 | O=c1ccc2c(O)cccc2o1 [Example 31] | 244 to 247 °C
19 | Nc1ccc(C(=O)c2ccc(N)cc2)cc1 [Example 33] | 244 to 245 °C
20 | COc1ccccc1[C@H](C)C(=O)N1C[C@@H]2[C@H](C1)C(c1ccccc1)(c1ccccc1)CC[C@@]2(O)c1ccccc1OC [Example 34] | 244 °C
21 | Nc1nc(N)nc(Cc2ccccc2)n1 [Example 67] | 248 °C
22 | Cc1ccc2cc3cc(C)ccc3cc2c1 [Example 80] | 250 °C
23 | Oc1cccc2nc3ccccc3cc12 [Example 84] | 230 °C
24 | O=c1nc(Cc2ccccc2)[nH]c2ccccc12 [Example 102] | 254 to 256 °C
25 | c1ccc2cc3c(ccc4cc5ccccc5cc43)cc2c1 [Example 123] | 257 °C

conditions: estimated melting point temperature ranges of candidate organic compounds (Table 2); some compounds have several values, partly in parentheses, because analytic techniques differ; cited from earlier work

Row | Structure (SMILES) | Melting Point
26 | CCCOc1ccccc1-c1nc2nn[nH]c2c(=O)[nH]1 [Example 1] | 241° ° C.
27 | CCCN(CCC)CCc1cccc2c1CC(=O)N2 [Example 2] | 241-243° ° C.
28 | Cl.c1ccc(N=C(Nc2ccccc2)Nc2ccccc2)cc1 [Example 3] | 241° ° C.
29 | C1=CCC2=C(C1)CC1=C(C2)CC2=C(CC=CC2)C1 [Example 4] | 241-242° ° C.
30 | CCOc1cccc(C#N)c1 [Example 5] | 241-244° ° C.
31 | CN[C@H]1CC[C@@H](c2ccccc2)c2ccccc21 [Example 6] | 241-242° ° C.
32 | Cc1ccc2cc3ccc(C)cc3cc2c1 [Example 7] | 241° ° C.
33 | O=C1NC(=O)C2(CCC(O)C2)c2ccncc21 (stereo not shown) [Example 8] | 240-243° ° C.
34 | Nc1nnc(-c2ccccc2)o1 [Example 9] | 241-243° ° C.
35 | c1cc2c3c(cccc3c1)-c1nc3ccccc3nc1-2 [Example 10] | 241° ° C.
36 | O=[N+]([O-])c1cccc2nc[nH]c12 [Example 12] | 242° ° C.
37 | NC(=O)CCCC[C@@H]1SC[C@@H]2NC(=O)N[C@@H]21 [Example 13] | 242-244° ° C.
38 | O=C1C=CC=CC1=C1Nc2ccccc2N1 [Example 15] | 242° ° C.
39 | C[C@]12CCC(=O)C[C@H]1CC[C@@H]1[C@@H]2CC[C@]2(C)[C@@H](c3ccc(=O)oc3)CC[C@]12O [Example 16] | 242-245° ° C.
40 | N#CC(CCN1CCC(C(=O)ON2C(=O)CCC2=O)(c2ccccc2)CC1)(c1ccccc1)c1ccccc1 [Example 17] | 242-244° ° C.
41 | CC1(C)Oc2ccc(C#N)cc2[C@@H](N2CCCC2=O)[C@@H]1O [Example 18] | 242-244° ° C.
42 | c1cnc2c(ccc3nccnc32)n1 [Example 20] | 242° ° C.
43 | CC(C)(C)C1=CC(=C2C=C(C(C)(C)C)C(=O)C(C(C)(C)C)=C2)C=C(C(C)(C)C)C1=O [Example 22] | 243-245° ° C.
44 | Cc1nc2ccccc2c2ccc([N+](=O)[O-])cc12 [Example 23] | 243-245° ° C.
45 | Nc1ccc2ccccc2c1-c1c(N)ccc2ccccc12 [Example 25] | 242.5-243° ° C.
46 | CC1=C(/C=C/C(C)=C/C=C/C(C)=C/C=C/C=C(C)/C=C/C=C(C)/C=C/C2=C(C)C(=O)C(=O)C2(C)C)C(C)(C)C(=O)C1=O [Example 26] | 243° ° C.
47 | O=C1C(=O)c2cccc3cccc1c23 [Example 27] | 243-245° ° C.
48 | Cc1cc(C)c(C=O)cc1C [Example 28] | 243° ° C.
49 | [H]/N=C(\N/C(=N/[H])Nc1ccc(Cl)cc1)NC(C)C [Example 30] | 244-245° ° C.
50 | O=c1ccc2c(O)cccc2o1 [Example 31] | 244-247° ° C.
51 | c1ccc(Nc2ccc(-c3ccc(Nc4ccccc4)cc3)cc2)cc1 [Example 32] | 244-245° ° C.

Row | Structure (SMILES) | Melting Point
52 | Nc1ccc(C(=O)c2ccc(N)cc2)cc1 [Example 33] | 244-245° ° C.
53 | COc1ccccc1[C@H](C)C(=O)N1C[C@@H]2[C@H](C1)C(c1ccccc1)(c1ccccc1)CC[C@@]2(O)c1ccccc1OC [Example 34] | 244° ° C.
54 | c1ccc2c(C(c3c[nH]c4ccccc34)c3c[nH]c4ccccc34)c[nH]c2c1 [Example 38] | 244-246° ° C.
55 | NC(=O)c1cccc2nc3ccccc3nc12 [Example 42] | 245-246° ° C.
56 | CN1C(=O)C(=NNC(N)=S)c2ccccc21 [Example 43] | 245° ° C.
57 | CCC(N)Cc1cc(OC)c(C)cc1OC (stereo not shown) [Example 46] | 245-246.5° ° C.
58 | O=C(Nc1ccccc1)Nc1ccccc1 [Example 49] | 246-248° ° C.
59 | Cn1c(=S)c2c(ncn2C)n(C)c1=O [Example 52] | 246-247° ° C.
60 | c1ccc(-c2c3ccccc3c(-c3ccccc3)c3ccccc23)cc1 [Example 54] | 246-248° ° C.
61 | CC(C)c1nc2nc(N)nc(N)c2nc1C(C)C [Example 55] | 246° ° C.
62 | Nc1ccc(S(=O)(=O)Nc2cnc3ccccc3n2)cc1 [Example 58] | 247-248° ° C.
63 | CCCC1C(=O)N2C(N(C)C)=Nc3ccc(C)cc3N2C1=O (stereo not shown) [Example 62] | 247-248° ° C.
64 | Oc1nc2ccccc2nc1-c1ccccc1 [Example 64] | 247° ° C.
65 | CC(=O)[C@H]1CC[C@H]2[C@@H]3CCc4cc(O)ccc4[C@H]3CC[C@]12C [Example 65] | 247-249° ° C.
66 | O=c1ccc2[nH]cc(C3=CCNCC3)c2[nH]1 [Example 66] | 248° ° C.
67 | Nc1cc(N)nc(N)n1 [Example 70] | 249-251° ° C.
68 | COc1cccc2c1CCCC2N (stereo not shown) [Example 76] | 249-250° ° C.
69 | Nc1nc(N)c2ccccc2n1 [Example 78] | 250-252° ° C.
70 | Nc1ccc(N=Nc2ccc(N)cc2)cc1 [Example 81] | 250° ° C.
71 | CN(C)c1ncnc2nc[nH]c12 [Example 89] | 251-253° ° C.
72 | O=C(Nc1ccccc1)C(=O)Nc1ccccc1 [Example 91] | 252-254° ° C.
73 | Cc1cc2cc3ccccc3cc2cc1C [Example 93] | 252° ° C.
74 | Nc1cccc2c1C(=O)c1ccccc1C2=O [Example 96] | 253-254° ° C.
75 | Nc1nc2ccc([N+](=O)[O-])cc2s1 [Example 97] | 253° ° C.
76 | N#Cc1cncnc1N [Example 104] | 254-256° ° C.
77 | O=C1C2C(c3ccccc3)NC(c3ccccc3)C1C(c1ccccc1)NC2c1ccccc1 (stereo not shown) [Example 106] | 255-256° ° C.

Row | Structure (SMILES) | Melting Point
78 | Nc1ccc2nc(N)nc(N)c2c1 [Example 109] | 255-258° ° C.
79 | O=[N+]([O-])c1c2ccccc2c2ccc3cccc4ccc1c2c43 [Example 111] | 255-256° ° C.
80 | Oc1cc(-c2ccccc2)nc2ccccc12 [Example 114] | 255-257° ° C.
81 | c1cc(-c2sc(-c3ccncc3)c(-c3ccncc3)c2-c2ccncc2)ccn1 [Example 116] | 256-258° ° C.
82 | Cn1c(=O)c(=O)n(C)c2ccccc21 [Example 120] | 256-258° ° C.
83 | O=C1C(=O)c2cccnc2-c2ncccc21 [Example 126] | 258° ° C.
84 | NC1=CC(=O)c2ncccc2C1=O [Example 131] | 258-260° ° C.
85 | Cc1ccc2c(c1)[nH]c1ccccc12 [Example 133] | 259° ° C.
86 | Cc1cc(C)c(C#N)c(=S)[nH]1 [Example 134] | 259-260° ° C.
87 | COc1nc(C)nc(N)n1 [Example 135] | 259-261° ° C.
88 | OC1C2CC3CC(C2)CC1C3 (stereo not shown) [Example 140] | 260-265° ° C.
89 | OCC(CO)(CO)CO [Example 144] | 260° ° C.
90 | Oc1ccc2cccc(O)c2n1 [Example 146] | 260° ° C.
91 | O=C1CN(N=C/C=C/c2ccc([N+](=O)[O-])o2)C(=O)N1 [Example 151] | 261° ° C.
92 | COC(=O)c1cc2c(cn1)[nH]c1ccccc12 [Example 153] | 261-262° ° C.
93 | N#Cc1cc(C#N)cc(C#N)c1 [Example 157] | 261-263° ° C.
94 | Cc1ccc(NC(=O)Nc2ccc(C)cc2)cc1 [Example 167] | 262-263° ° C.
95 | COc1ccc2nc(S)[nH]c2c1 [Example 170] | 263-264° ° C.
96 | CC(=O)Oc1c(C)c(C)c2c(c1C)CCC(C)(CCN(C)C)O2 (stereo not shown) [Example 172] | 263-270° ° C.
97 | NC1=CC(=O)c2cccnc2C1=O [Example 177] | 263° ° C.
98 | Cn1c(=O)c2[nH]cnc2n(C)c1=O [Example 179] | 264° ° C.
99 | CN/C(=N\c1ccc(C2=NNC(=O)CC2C)cc1)NC#N (stereo not shown) [Example 180] | 264-265° ° C.
100 | C[C@]12CC[C@@H]3c4ccc(O)cc4C=C[C@H]3[C@@H]1CCC2=O [Example 186] | 264-265° ° C.
101 | NC(=O)c1ccc(Oc2ccc(C(N)=O)cc2)cc1 [Example 193] | 265° ° C.
102 | Cc1c(C)c2cccnc2c2ncccc12 [Example 195] | 265-266° ° C.
103 | COc1ccc(-c2cc(=O)c3ccc(O)cc3o2)cc1 [Example 196] | 265-267° ° C.
